Experimental data: ChEMBL document CHEMBL1156829 (Proc Natl Acad Sci U S A, 2008)

What was measured:
Plasmodium falciparum [1] = assay: NOVARTIS: Inhibition of Plasmodium falciparum 3D7 (drug-susceptible) proliferation in erythrocyte-based infection assay; assay type: functional, organism-based; conditions: Plasmodium falciparum, 3D7
[2] = NOVARTIS: Cytotoxicity against human hepatocellular carcinoma cell line (Huh7); assay type: toxicity, cell-based, Huh-7; conditions: Huh7 cells (hepatocellular carcinoma cell line)
Plasmodium falciparum [3] = assay: NOVARTIS: Inhibition of Plasmodium falciparum W2 (drug-resistant) proliferation in erythrocyte-based infection assay; assay type: functional, organism-based; conditions: Plasmodium falciparum, W2; read-out: EC50

Structure (SMILES) | EC50 (Plasmodium falciparum [1]) | CC50 [2] | EC50 (Plasmodium falciparum [3])
CN(C)C(=O)O[n+]1ccc(N(C)C)cc1 | > 990 nM | > 10000 nM | > 897 nM
Clc1cc(N2CCCCC2)c(Cl)nn1 | > 1250 nM | > 10000 nM | > 892 nM
CCN1CCN(CC(O)COc2ccc(OC)cc2)CC1 (configuration not stated) | 2810 nM | > 100000 nM | > 9190 nM
Oc1ccccc1Nc1nc(NCc2ccccc2)c2ccccc2n1 | 277 nM | 12500 nM | 1120 nM
O=c1[nH]c(N2CCCC2)nc2c1CCN(Cc1coc3ccccc3c1=O)C2 | > 1250 nM | > 10000 nM | > 896 nM
Cc1nc2ccccc2c(=O)n1-c1ccc([N+](=O)[O-])cc1 | 765 nM | > 10000 nM | 896 nM
CCCCCN(C(=O)c1ccc(C)cc1)C(C)c1nc2ccccc2c(=O)n1-c1ccccc1CC (configuration not stated) | > 1620 nM | > 10000 nM | 895 nM
O=C(CCl)Nc1ccc(S(=O)(=O)OCC(F)(F)C(F)F)cc1 | 1730 nM | 17100 nM | 1580 nM
Cc1c(C#N)c2ccccc2n1CC(=O)Nc1ccc(Br)cc1 | 771 nM | 11100 nM | 1030 nM
COc1ccc(OC)c(C(=O)c2oc3ccccc3c2NC(=O)CCl)c1 | 10200 nM | 15500 nM | 1380 nM
COc1ccc(C(=O)Nc2ccc(-c3nc4ccc(NC(=O)c5ccc(OC)cc5)cc4[nH]3)cc2)cc1 | 800 nM | 8780 nM | 810 nM
CCOC(=O)C1=C(N)n2c(sc(=Cc3cccnc3)c2=O)=C(C(=O)OC)C1c1cccnc1 (configuration not stated) | > 1250 nM | > 10000 nM | > 922 nM
COc1cc(/C=C(\C#N)c2nc3ccccc3[nH]2)ccc1OCc1ccccc1F | > 1190 nM | > 10000 nM | 919 nM
COc1ccc(/C=C/C(=O)Nc2ccc(S(=O)(=O)N3CCOCC3)cc2)cc1 | > 1620 nM | > 10000 nM | 891 nM
O=C(N/C(=C/C=C/c1ccccc1)C(=O)N1CCCCC1)c1ccc([N+](=O)[O-])cc1 | > 719 nM | > 10000 nM | > 889 nM
O=C(NCCCN1CCCC1=O)c1cccn2c(=O)c3ccc(Cl)cc3nc12 | > 1350 nM | > 10000 nM | > 918 nM
C=CCNC(=O)c1cc(OCc2ccccc2)c(OCc2ccccc2)c(OCc2ccccc2)c1 | 10800 nM | > 100000 nM | 9180 nM
CCOc1ccc(C=NNC(=O)CCn2nnc3ccccc32)cc1 | > 1040 nM | > 13600 nM | > 1250 nM
CCOc1ccc(C(=O)Nc2cc(OC)ccc2OC)cc1 | > 1250 nM | > 10000 nM | > 917 nM
CCCCCN(C(=O)Nc1ccccc1OC)C(C)c1nc2ccccc2c(=O)n1-c1ccccc1OCC (configuration not stated) | 843 nM | > 10000 nM | 917 nM
CCOc1ccc(C2=NC3(CCN(C(C)C)CC3)NC(c3cc(Cl)ccc3O)C2)cc1 (configuration not stated) | 7180 nM | 59900 nM | 5480 nM
Fc1ccc(-n2cc(-c3ccccc3)[n+]3c2SCC3)cc1 | > 965 nM | > 10000 nM | > 911 nM
CCCCNCCN1CCN(c2cc(OC)cc(OC)c2)C[C@@H]1Cc1ccccc1 | > 1250 nM | 10300 nM | 938 nM
O=C(CN1CCCC1C(c1ccccc1)c1ccccc1)N1CCSCC1 (configuration not stated) | > 1250 nM | 12000 nM | > 1080 nM
CCOC(=O)c1c(N)n(-c2ccc(NC(=O)c3cccc([N+](=O)[O-])c3)cc2)c2nc3ccccc3nc12 | 320 nM | 19400 nM | 1740 nM
COc1cccc(NC(=O)c2ccc3oc(=O)c(S(=O)(=O)c4ccccc4)cc3c2)c1 | > 1250 nM | > 10000 nM | > 898 nM
Cn1c(C(C#N)C(=S)NC2CCCCC2)nc2cccnc21 (configuration not stated) | > 1250 nM | > 10000 nM | > 894 nM

Structure (SMILES) | EC50 (Plasmodium falciparum [1]) | CC50 [2] | EC50 (Plasmodium falciparum [3])
N#Cc1c(N)nc2sc(C(=O)c3ccc(F)cc3)c(N)c2c1-c1ccccc1 | > 1250 nM | > 10000 nM | > 915 nM
CC(=O)c1ccc(OCCSc2nc3c(N)ncnc3[nH]2)cc1 | > 11200 nM | > 100000 nM | > 9150 nM
Cc1nc2c(-c3ccccc3)c(C)nn2c(C)c1CC(=O)NCc1ccccn1 | > 12500 nM | > 100000 nM | 9140 nM
CCOc1ccc(NC(=O)CSc2nc3cc(OCC)ccc3[nH]2)cc1 | 900 nM | > 13800 nM | > 1250 nM
Cc1cc(C)n(N=Cc2cccc(Cl)c2)c(=O)c1C#N | > 12500 nM | > 100000 nM | 9060 nM
Cc1c(C(=O)N2CCN(c3cccc(Cl)c3)CC2)sc2ncnc(N(C)c3ccccc3)c12 | > 723 nM | > 10000 nM | > 906 nM
Cc1ccc(NC(=O)c2sc3nc4c(c(-c5ccc(C)cc5)c3c2N)CCC4)cc1 | 2790 nM | > 100000 nM | 8940 nM
Oc1c(C(Nc2ccccn2)c2ccncc2)ccc2cccnc12 (configuration not stated) | 830 nM | > 10000 nM | 892 nM
CCOc1ccccc1C1NC(=O)NC(C)=C1C(=O)OCC(F)(F)C(F)(F)F (configuration not stated) | > 1250 nM | > 10000 nM | > 913 nM
Cc1ccc(C=Cc2ccc3ccccc3[n+]2C)cc1 | 59.4 nM | 16300 nM | 1480 nM
O=C1c2ccccc2C(=O)C12C(c1ccc(Br)cc1)N(c1ccccc1)C1(C(=O)c3ccccc3C1=O)C2c1ccc(Br)cc1 (configuration not stated) | 510 nM | > 10000 nM | > 914 nM
Nc1cc(OC(=O)c2ccccc2)nn1S(=O)(=O)c1ccc(Cl)cc1 | > 1250 nM | > 10000 nM | 923 nM
CC[n+]1c(/C=C2\C=C(C)CC(C)C2)sc2ccccc21 (configuration not stated) | > 1140 nM | > 10000 nM | > 913 nM
O=C(C1CCC1)N1CCN(c2ccccn2)CC1 | > 1250 nM | > 10000 nM | > 918 nM
O=C1c2ccc(-c3nc(-c4ccccc4)[nH]c3-c3ccccc3)cc2-c2cc(-c3[nH]c(-c4ccccc4)nc3-c3ccccc3)ccc21 | 9190 nM | > 100000 nM | 8930 nM
COc1ccc(/C=C2/SC(Nc3ccc(F)cc3)=NC2=O)c(OC)c1 | 1060 nM | > 10000 nM | 916 nM
Cc1nc(N2CCC(C)CC2)c2c(C)c(C(=O)Nc3ccc(F)cc3)sc2n1 | 792 nM | > 10000 nM | > 912 nM
CC(C)=CCC/C(C)=C/CCC(C)NCCN1CCNCC1 (configuration not stated) | > 1100 nM | > 10000 nM | 911 nM
CC[n+]1c(/C=C/C=C2\N(C)c3ccccc3C2(C)C)n(Cc2ccccc2)c2ccccc21 | 355 nM | 2420 nM | 219 nM
O=[N+]([O-])c1ccc(NN=Cc2cccs2)c(S(=O)(=O)N2CCCCCC2)c1 | > 1250 nM | > 10000 nM | > 899 nM
COCCN(CC(O)CNC(=O)c1ccc2ccccc2n1)S(=O)(=O)c1c(C)noc1C (configuration not stated) | > 90 nM | > 10000 nM | > 895 nM
Cc1ccc2c(c1)C1CN(C)CCC1N2C(=O)c1cc2ccccc2o1 (configuration not stated) | > 1040 nM | > 10000 nM | > 922 nM
CSc1oc(-c2ccccc2)nc1C(N)=O | > 1200 nM | > 10000 nM | > 925 nM
Cc1ccccc1CNC(=O)c1oc2c(c1C)-c1[nH]ncc1CC2 | > 1250 nM | > 10000 nM | > 914 nM
COc1ccc(C2=C(c3ccc(OC)cc3)C3(c4ccccc4)C(=O)C2(c2ccccc2)C2C(=O)N(c4ccc(C)c(Br)c4)C(=O)C23)cc1 (configuration not stated) | 734 nM | > 10000 nM | 901 nM
O=C(Nc1ccc(Nc2cc([N+](=O)[O-])ccc2O)c2c1C(=O)c1ccccc1C2=O)c1ccccc1 | > 1250 nM | > 10000 nM | > 901 nM
CN(c1ccc(Cl)cc1)S(=O)(=O)c1ccc2[nH]cc(C(=O)NCCC3=CCCCC3)c(=O)c2c1 | > 1250 nM | > 10000 nM | > 911 nM
